Experiments:
IL-11 [1] = assay: IL-1 and TGFβ induction of IL-11 in MM/BMSC cultures; assay type: cell-based, human; details: 100 nM
Excerpt: (§1) p38 MAPK controls secretion of these factors in-vitro in systems representing the BM milieu.

COX-2 mRNA = assay: LPS-induced COX-2 mRNA; assay type: cell-based
multiple myeloma = assay: Treatment of a patient with multiple myeloma; assay type: in vivo, human
Excerpt: A patient is diagnosed with multiple myeloma. The patient presents with MM cells with rapid growth rates, which displace osteoblasts, and disrupting the balance of bone creation and destruction. A number of MM-related cytokines, such as IL-6, VEGF, IL-11, and PGE-2 are detectable. […] MM cell growth is inhibited and MM-related cytokine product is reduced.

purified COX-2 enzyme = target: T1, purified COX-2 enzyme (Homo sapiens, UniProt P35354); assay: Purified COX-2 enzyme activity; assay type: biochemical
T1 sequence (P35354 18-604): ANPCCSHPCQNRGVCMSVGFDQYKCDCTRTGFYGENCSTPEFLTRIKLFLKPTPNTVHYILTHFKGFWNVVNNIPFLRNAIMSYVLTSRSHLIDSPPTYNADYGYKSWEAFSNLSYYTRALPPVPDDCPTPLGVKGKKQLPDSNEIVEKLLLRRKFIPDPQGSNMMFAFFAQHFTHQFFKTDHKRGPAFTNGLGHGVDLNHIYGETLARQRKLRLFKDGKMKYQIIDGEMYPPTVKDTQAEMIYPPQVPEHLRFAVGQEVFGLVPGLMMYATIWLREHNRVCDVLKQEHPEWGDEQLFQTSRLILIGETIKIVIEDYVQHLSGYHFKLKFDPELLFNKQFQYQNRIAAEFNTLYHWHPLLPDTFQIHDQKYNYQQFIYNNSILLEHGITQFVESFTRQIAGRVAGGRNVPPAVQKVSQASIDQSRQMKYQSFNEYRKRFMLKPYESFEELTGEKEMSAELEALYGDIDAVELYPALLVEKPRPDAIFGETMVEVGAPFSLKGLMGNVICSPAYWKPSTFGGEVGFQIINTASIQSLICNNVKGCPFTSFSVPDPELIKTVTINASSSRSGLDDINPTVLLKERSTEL

Hsp27 = assay: Total Hsp27 levels in MM cells; assay type: cell-based, human; details: even after prolonged incubation
Protocol: (§2) Total cell lysates are immunoprecipitated with anti-MAPKAPK-2 antibody and subjected to in vitro kinase assays using purified GST-Hsp27 as substrate. To examine Hsp27 phosphorylation in MM and transformed B cells, U266, IM9 and RPMI8226 cells are incubated either with DMSO or with 0.5 μM of a p38 MAPK inhibitor and cell lysates are immunoblotted with antibodies to phospho-Hsp27 (Ser 82) and Hsp27.

MM cells = assay: MM cell viability and proliferation with SN-50 co-exposure; assay type: cell-based; details: co-exposure with SN-50
Excerpt: SN-50 is a cell-permeable specific inhibitor of NF-kappaB nuclear translocation and activity. Nuclear factor-kappaB has been reported to confer significant survival potential in a variety of tumors, including MM cells.

HSP-27 [2] = assay: HSP-27 phosphorylation in BMSC; assay type: cell-based, human
IL-11 [3] = assay: IL-1 and TGFβ induction of IL-11 in BMSC cultures; assay type: cell-based, human; details: 100 nM
Excerpt: as §1

BMSC = BMSC viability, MTS assay; assay type: cell-based, human; details: tested up to 50-fold excess of active concentration
Protocol: Neither p38 MAPK inhibition nor high concentrations of p38 MAPK inhibitor (tested up to 50-fold excess of active concentration) affected BMSC viability (FIG. 4). Viability was measured using a standard enzymatic assay of respiratory activity, MTS (3-(4,5-dimethylthiazol-2-yl)-5-(3-carboxymethoxyphenyl)-2-(4-sulfophenyl)-2H-tetrazolium). Results obtained with the p38 MAPK inhibitor are in agreement with published results using a different p38α MAPK inhibitor.

TNF-α = assay: LPS-induced TNF-α secretion in whole blood; assay type: cell-based, human
Protocol: Other in vitro assays can assess the production of TNF-α as a correlation to p38 MAP kinase activity. One such example is a Human Whole Blood Assay. In this assay, venous blood is collected from, e.g., healthy male volunteers into a heparinized syringe and is used within 2 hours of collection. Test compounds are dissolved in 100% DMSO and 1 μl aliquots of drug concentrations ranging from 0 to 1 mM are dispensed into quadruplicate wells of a 24-well microtiter plate (Nunclon Delta SI, Applied Scientific Co., San Francisco, Calif.). Whole blood is added at a volume of 1 ml/well and the mixture is incubated for 15 minutes with constant shaking (Titer Plate Shaker, Lab-Line Instruments, Inc., Melrose Park, Ill.) at a humidified atmosphere of 5% CO2 at 37° C. Whole blood is cultured either undiluted or at a final dilution of 1:10 with RPMI 1640 (Gibco 31800+NaHCO3, Life Technologies, Rockville, Md. and Scios, Inc., Sunnyvale, Calif.). At the end of the incubation period, 10 μl of LPS (E. coli 01111:B4, Sigma Chemical Co., St. Louis, Mo.) is added to each well to a final concentration of 1 or 0.1 μg/ml for undiluted or 1:10 diluted whole blood, respectively. The incubation is continued for an additional 2 hours. The reaction is stopped by placing the microtiter plates in an ice bath, and plasma or cell-free supernates are collected by centrifugation at 3000 rpm for 10 minutes at 4° C. […]

PGE2 = PGE2 levels in LPS-induced human whole blood; assay type: cell-based
[4] = tested on: MM cell lines (U266B, RPMI, ARH-77, and IM9); assay: MM cell proliferation; assay type: cell-based, human; details: 72-hour exposure; each of four MM cell lines (U266B, RPMI, ARH-77, IM9)
MAPKAPK-2 = MAPKAPK-2 in vitro kinase assay with GST-Hsp27 substrate; assay type: cell-based, human
Protocol: as §2

IL-1β = assay: LPS-induced IL-1β release in human whole blood; assay type: cell-based; details: human whole blood (undiluted)
Excerpt: IL-1β illustrates the importance of amplification loops in myeloma-induced cytokine stimulation. IL-1, plays a well-documented role in the induction of multiple cytokines in a “cytokine network” of feedback loops, including strong induction of IL-6. The ability of IL-1 to increase mRNA expression and induce secretion of the MM-relevant cytokines from MM/BMSC cultures is evidence of this role.

MKK3 and MKK6 = assay: Activation of p38 MAPK by upstream kinases
HSP-27 [5] = assay: HSP-27 phosphorylation in MM cells (p38 MAPK activity); assay type: cell-based, human
Protocol: as §2
In additional experiments, the p38 MAPK inhibitors are tested for their ability to inhibit Hsp27 phosphorylation. U266, IM9 and RPMI8226 cells are incubated with 0.5 μM of the p38 MAPK inhibitor for 1 hour and Hsp27 proteins are immunoprecipitated with agarose-conjugated Hsp27 antibody, followed by immunoblotting with anti-phospho Hsp27 (Ser 78) antibody.
Specific antibodies to p38 MAP kinase are from Santa Cruz Biotechnology (Santa Cruz, Calif.). Antibodies to phospho-p38 MAP kinase (T180/Y182) and phospho-Hsp27 (S82) are from Cell Signaling (Beverly, Mass.). Antibodies to Hsp27 and phospho-Hsp27 (S78) are from Upstate Biotechnology (Lake Placid, N.Y.). Anti-MAPKAPK-2 is from StressGen (San Diego, Calif.) while anti-GAPDH is from Biogenesis Ltd. (Poole, UK).

[6] = tested on: human myeloma (RPMI8266) tumor; assay: Beige-nude-xid mouse xenograft plasmacytoma model; assay type: in vivo
Excerpt: Human-multiple myeloma (MM) is an incurable neoplasm of terminally differentiated B cells and MM disease progression is affected by immunoregulatory elements such as IL-6 and other cytokines. […]

VEGF = VEGF secretion from MM contact-activated BMSC; assay type: cell-based, human
Excerpt: as §1

[7] = in combination with an apoptosis promoting agent

With `C[C@@H]1CN(Cc2ccc(F)cc2)[C@@H](C)CN1C(=O)c1cc2c(C(=O)C(=O)N(C)C)cn(C)c2cc1Cl` [Compound 57] the “IL-1 and TGFβ induction of IL-11 at the mRNA and protein levels” value (IL-11 [1]) was “blocked”, the “LPS-induced COX-2 mRNA” value (COX-2 mRNA) was “inhibited” and the MM cell growth (multiple myeloma; [7]) was “inhibited”. The MM-related cytokine product (multiple myeloma; [7]) was “reduced”, the MM cell growth (multiple myeloma; therapeutic amount, alone) was “inhibited” and the MM-related cytokine product (multiple myeloma; therapeutic amount, alone) was “reduced”. The “activity of the purified COX-2 enzyme” value (purified COX-2 enzyme) was “did not directly inhibit”, the “total Hsp27 levels” value (Hsp27) was “does not affect” and the “reduction of MM cell viability and proliferation caused by SN-50-induced NFκB inhibition” value (MM cells) was “enhances the reduction of MM cell viability and proliferation”. The “phosphorylation of HSP-27” value (HSP-27 [2]) was “blocked phosphorylation of HSP-27 completely”, the “IL-1 and TGFβ induction of IL-11 at the mRNA and protein levels” value (IL-11 [3]) was “blocked” and the BMSC viability (BMSC) was “Neither p38α MAPK inhibition nor high concentrations of Compound 57 (tested up to 50-fold excess of active concentration) affected BMSC viability”. For the same compound, the “LPS-induced TNF-α secretion” value (TNF-α) was “dose-dependent reduction”, the PGE2 levels (PGE2) was “reduced” and the reduction in proliferation [4] was “about 20%”. For the same compound, the “activity of downstream substrate MAPKAPK-2” value (MAPKAPK-2) was “suppresses”, the “LPS-induced IL-1β release” value (IL-1β) was “dose-dependent reduction” and the “direct activation of the p38 MAPK enzyme or activity of kinases upstream of p38 MAPK” value (MKK3 and MKK6) was “not the direct activation of the p38 MAPK enzyme or the activity of kinases upstream of p38 MAPK”. For the same compound, the “phosphorylation of HSP-27” value (HSP-27 [5]; MM cells) was “blocked phosphorylation of HSP-27 completely”, the Hsp27 phosphorylation (HSP-27 [5]; U266, IM9, RPMI8226, cell lysates or immunoprecipitation assays, 0.5 μM) was “inhibits” and the “p38 MAPK activity” value (HSP-27 [5]; immunodetection of p38 MAPK kinase target HSP-27) was “fully suppressed”. For the same compound, the “tumor volume, histological assessment” value ([6]; at the end of dosing, versus vehicle) was “significant reduction”, the “number of neoformed microvessels” value ([6]; histological assessment at the end of dosing) was “significant reduction” and the “HSP27 expression in tumor cells” value ([6]; mouse, in vivo) was “significantly reduces”. The “p38 expression in tumor cells” value ([6]; mouse, in vivo) was “significantly reduces”, the tumor volume ([6]; palpable tumors (~200 mm^3), 90 mg/kg/bid oral gavage, 21 days) was “significantly reduces” and the tumor volume ([6]; treatment initiated at pronounced tumor size (~800 mm^3)) was “significant reduction”.
In the case of `COC(=O)C(=O)c1cn(C(=O)c2ccc(Cl)cc2)c2cc(OC)c(C(=O)N3CCC(Cc4ccccc4)CC3)cc12` [Compound 4], the VEGF secretion (VEGF) is reported as “inhibited”.
